From ChEMBL document CHEMBL1201862, “PubChem BioAssay data set” (2004)
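Step 1: Grow cells in 96-well plates. Step 2: Expose to compound for 48 hours at 5 concentrations. Step 3: Interpolate endpoints linearly; if unreached, use highest concentration. GI50 marks 50% less growth.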 Activity calls are given as the source filed them. Cut-off read from the data, not from the text of the source: active = GI50 up to about 1.1 µM and inactive = higher.

Assays:
Experiment in all cases: NCI anticancer screen, dose series, 48 h
U-251 = system: U-251
K562 = system: K562
A549 = system: A549
SNB-19 = system: SNB-19
NCI-H522 = system: NCI-H522
LOX IMVI = system: LOX IMVI
NCI-H226 = system: NCI-H226
SF-539 = system: SF-539
ACHN = system: ACHN
MDA-MB-435 = system: MDA-MB-435
RPMI-8226 = system: RPMI-8226
UO-31 = system: UO-31
CAKI-1 = system: CAKI-1
SK-MEL-5 = system: SK-MEL-5
HL-60 = system: HL-60
IGROV-1 = system: IGROV-1
A498 = system: A498
SK-MEL-28 = system: SK-MEL-28
SK-MEL-2 = system: SK-MEL-2
Malme-3M = system: Malme-3M

Measured: GI50

CSc1nc(Cl)c(Br)c(Nc2cnc(O)nc2O)n1
inactive: U-251 20.2 µM | K562 26.9 µM | A549 19.2 µM | SNB-19 20.2 µM | NCI-H522 1.87 µM | LOX IMVI 19.4 µM | NCI-H226 20.1 µM | SF-539 20.1 µM | ACHN 18.7 µM | MDA-MB-435 27.5 µM | RPMI-8226 28.3 µM | UO-31 20.3 µM | CAKI-1 1.79 µM | SK-MEL-5 19.6 µM | HL-60 2.06 µM | IGROV-1 6.34 µM | A498 11.6 µM | SK-MEL-28 29.5 µM | SK-MEL-2 17.5 µM | Malme-3M 20.7 µM

CCC1C(=O)OCc2c1cc1n(c2=O)Cc2cc3ccccc3nc2-1 (stereo not drawn)
inactive: U-251 3.53 µM | K562 18.1 µM | A549 5.09 µM | SNB-19 5.13 µM | NCI-H522 7.73 µM | LOX IMVI 3.78 µM | NCI-H226 10.8 µM | SF-539 1.73 µM | ACHN 3.28 µM | MDA-MB-435 44.3 µM | RPMI-8226 12.4 µM | UO-31 2.37 µM | CAKI-1 2.17 µM | SK-MEL-5 5.79 µM | HL-60 1.88 µM | IGROV-1 17.6 µM | A498 10.7 µM | SK-MEL-28 13.2 µM | SK-MEL-2 > 100 µM | Malme-3M 60.3 µM

Cc1ccc2c(ccc(/C=C/c3ccc(O)c4ncccc34)[n+]2C)c1
inactive: U-251 6.62 µM | K562 3.11 µM | A549 15.1 µM | SNB-19 12.9 µM | NCI-H522 3.64 µM | LOX IMVI 2.96 µM | NCI-H226 24.8 µM | SF-539 7.18 µM | ACHN 10 µM | MDA-MB-435 > 30.4 µM | RPMI-8226 13.9 µM | UO-31 > 33.9 µM | CAKI-1 5.55 µM | SK-MEL-5 14.1 µM | HL-60 19.5 µM | IGROV-1 15.8 µM | A498 12.2 µM | SK-MEL-28 10.3 µM | SK-MEL-2 17.3 µM | Malme-3M 11.1 µM

CC1(C)CCCCCCCCCC2CC2CCC(C)(C)C1=O (stereo not drawn)
inactive: U-251 18.7 µM | K562 15.6 µM | A549 22.9 µM | SNB-19 34.6 µM | NCI-H522 15.6 µM | LOX IMVI 19 µM | NCI-H226 14.2 µM | SF-539 18.8 µM | ACHN 19.1 µM | MDA-MB-435 23 µM | RPMI-8226 24 µM | UO-31 19.6 µM | CAKI-1 33.5 µM | SK-MEL-5 22.8 µM | HL-60 22 µM | IGROV-1 41.3 µM | A498 37.4 µM | SK-MEL-28 25.9 µM | SK-MEL-2 18.6 µM | Malme-3M 21 µM

CCNC(=O)c1cc(/C=C/c2ccc([N+](=O)[O-])o2)nc2ccccc12
inactive: U-251 71.9 µM | K562 6.79 µM | A549 24.2 µM | SNB-19 54.7 µM | NCI-H522 4.21 µM | LOX IMVI 2.85 µM | NCI-H226 5.15 µM | SF-539 23.3 µM | ACHN 2.26 µM | MDA-MB-435 2.19 µM | RPMI-8226 29.4 µM | UO-31 50.5 µM | CAKI-1 7.96 µM | SK-MEL-5 1.5 µM | HL-60 2.75 µM | IGROV-1 5.69 µM | A498 15.5 µM | SK-MEL-28 5.32 µM | SK-MEL-2 3.52 µM | Malme-3M 15.7 µM

C=CCN1CCC(O)(c2cc(C(=O)OCC)[nH]c2-c2cc(C)no2)C1 (stereo not drawn)
inactive: U-251 > 100 µM | K562 > 100 µM | A549 > 100 µM | SNB-19 > 100 µM | NCI-H522 > 100 µM | LOX IMVI > 100 µM | NCI-H226 > 100 µM | SF-539 > 100 µM | ACHN > 100 µM | MDA-MB-435 > 100 µM | RPMI-8226 > 100 µM | UO-31 > 100 µM | CAKI-1 > 100 µM | SK-MEL-5 > 100 µM | HL-60 > 100 µM | IGROV-1 > 100 µM | A498 > 100 µM | SK-MEL-28 > 100 µM | SK-MEL-2 > 100 µM | Malme-3M > 100 µM

O=C1CCCCC1C(O)(C(F)(F)F)C(F)(F)Cl (stereo not drawn)
inactive: U-251 > 10 µM | K562 > 10 µM | A549 > 10 µM | SNB-19 > 10 µM | NCI-H522 > 10 µM | LOX IMVI > 10 µM | NCI-H226 > 10 µM | SF-539 > 10 µM | ACHN > 10 µM | MDA-MB-435 > 10 µM | RPMI-8226 > 10 µM | CAKI-1 > 10 µM | SK-MEL-5 > 10 µM | HL-60 > 10 µM | IGROV-1 > 10 µM | A498 > 10 µM | SK-MEL-28 > 10 µM | SK-MEL-2 > 10 µM | Malme-3M > 10 µM

COc1cc(S(=O)(=O)Nc2ccc(-c3csc(N4C(=O)C(Cl)C4c4cccs4)n3)cc2)ccc1Cl (stereo not drawn)
inactive: K562 31.8 µM | A549 > 100 µM | SNB-19 > 100 µM | NCI-H522 4.35 µM | LOX IMVI 2.43 µM | NCI-H226 46 µM | SF-539 32.8 µM | ACHN > 100 µM | MDA-MB-435 72.9 µM | RPMI-8226 26.9 µM | UO-31 84.3 µM | CAKI-1 > 100 µM | SK-MEL-5 93.8 µM | HL-60 39.1 µM | IGROV-1 18.2 µM | A498 > 100 µM | SK-MEL-28 > 100 µM | SK-MEL-2 > 100 µM | Malme-3M > 100 µM

C[N+]1(C)CC=C(N2CCOCC2)CC1
inactive: U-251 > 10 µM | K562 > 10 µM | A549 > 10 µM | SNB-19 > 10 µM | NCI-H522 > 10 µM | LOX IMVI > 10 µM | NCI-H226 > 10 µM | SF-539 > 10 µM | ACHN > 10 µM | MDA-MB-435 > 10 µM | RPMI-8226 > 10 µM | UO-31 > 10 µM | CAKI-1 > 10 µM | SK-MEL-5 > 10 µM | HL-60 > 10 µM | IGROV-1 > 10 µM | A498 > 10 µM | SK-MEL-28 > 10 µM | SK-MEL-2 > 10 µM | Malme-3M > 10 µM

OCC1OC(c2scc3c(=S)[nH]cnc23)C(O)C1O (stereo not drawn)
inactive: U-251 > 93.3 µM | K562 13.6 µM | A549 31.7 µM | SNB-19 72.3 µM | NCI-H522 15.8 µM | LOX IMVI 2.86 µM | NCI-H226 16 µM | SF-539 8.81 µM | ACHN 4.84 µM | MDA-MB-435 20.4 µM | RPMI-8226 9.31 µM | UO-31 6.08 µM | CAKI-1 6.59 µM | SK-MEL-5 22.7 µM | HL-60 3.63 µM | IGROV-1 9.62 µM | A498 6.84 µM | SK-MEL-28 74 µM | SK-MEL-2 13.4 µM | Malme-3M 15.8 µM

Cc1nc2c(nc1C)-c1c(c3c(n1Cc1ccccc1)C(=O)CCC3)C(=O)C2=O
inactive: U-251 2.9 µM | K562 2.96 µM | A549 3.93 µM | SNB-19 7.96 µM | NCI-H522 2.86 µM | LOX IMVI 3.14 µM | NCI-H226 21.4 µM | SF-539 2.33 µM | ACHN 2.07 µM | MDA-MB-435 2.31 µM | RPMI-8226 1.84 µM | UO-31 2.08 µM | CAKI-1 2.15 µM | SK-MEL-5 6.34 µM | HL-60 3.09 µM | IGROV-1 2.58 µM | A498 18.8 µM | SK-MEL-28 2.02 µM | SK-MEL-2 5.08 µM | Malme-3M 3.35 µM

Cc1ccc(C(=O)Nc2ccc(CP(=O)(O)O)cc2)cc1NC(=O)c1cccc(NC(=O)Nc2cccc(C(=O)Nc3cc(C(=O)Nc4ccc(CP(=O)(O)O)cc4)ccc3C)c2)c1
inactive: U-251 > 100 µM | K562 > 100 µM | A549 > 100 µM | SNB-19 > 100 µM | NCI-H522 > 100 µM | LOX IMVI > 100 µM | NCI-H226 > 100 µM | SF-539 > 100 µM | ACHN > 100 µM | MDA-MB-435 > 100 µM | RPMI-8226 > 100 µM | UO-31 > 100 µM | CAKI-1 > 100 µM | SK-MEL-5 > 100 µM | HL-60 > 100 µM | IGROV-1 > 100 µM | A498 > 100 µM | SK-MEL-28 > 100 µM | SK-MEL-2 > 100 µM | Malme-3M > 100 µM

C=C1C(OC2O[C@@H]3O[C@@]4(C)CC[C@H]5[C@H](C)CC[C@@H](C2=C)[C@@]35O4)O[C@@H]2O[C@@]3(C)CC[C@H]4[C@H](C)CC[C@@H]1[C@@]24O3 (stereo partly drawn)
inactive: U-251 > 50 µM | K562 > 50 µM | A549 > 50 µM | SNB-19 > 50 µM | NCI-H522 > 50 µM | LOX IMVI > 50 µM | NCI-H226 > 50 µM | SF-539 > 50 µM | ACHN > 50 µM | MDA-MB-435 > 50 µM | RPMI-8226 > 50 µM | UO-31 > 50 µM | CAKI-1 > 50 µM | SK-MEL-5 > 50 µM | HL-60 > 50 µM | IGROV-1 > 50 µM | A498 > 50 µM | SK-MEL-28 > 50 µM | SK-MEL-2 > 50 µM | Malme-3M > 50 µM

O=C(O)CNc1ccc(C(=O)O)cc1
inactive: U-251 > 100 µM | K562 > 100 µM | A549 > 100 µM | SNB-19 > 100 µM | NCI-H522 > 100 µM | LOX IMVI > 100 µM | NCI-H226 > 100 µM | SF-539 > 100 µM | ACHN > 100 µM | MDA-MB-435 > 100 µM | RPMI-8226 > 100 µM | UO-31 > 100 µM | CAKI-1 > 100 µM | SK-MEL-5 > 100 µM | HL-60 2.85 µM | IGROV-1 > 100 µM | A498 > 100 µM | SK-MEL-28 > 100 µM | SK-MEL-2 > 100 µM | Malme-3M > 100 µM
